Reference: patent US7915242B2, “Vitamin D receptor antagonists and their use in treating asthma” (Wisconsin Alumni Research Foundation, priority 2004, dated 2011)
“Also recorded” adds a separate entry of the source.

What was measured:
[1] = tested on: Brown Norway rats; assay: Ovalbumin-induced allergic asthma, BALF cell counts; type: in vivo, rat; details: aerosolized 500 ng/Kg on Days 14 and 16
Description: 6-7 week old Brown Norway male rats were obtained from Harlan Sprague-Dawley (Madison, Wis.) and housed in shoebox cages. Animals were provided a purified rodent diet prepared in-house containing 0.47% calcium and 0.3% phosphorus, and water ad libitum. The diet was supplemented with 1.6 IU vitamin D3/g. Rats were sensitized on Days 0 and 7 with a 1 mL intraperitoneal (I.P.) injection of 1 mg/mL OVA in phosphate-buffered saline (PBS) precipitated 1:1 with Imject Alum (PIERCE, IL). Control animals were sensitized with PBS. The animals were then challenged with aerosolized OVA [1% (w/v)] or aerosolized PBS (control) on Days 14 and 16. This OVA-sensitization and -challenge protocol has been used extensively to generate asthma symptoms in rats. Aerosolized-PBS (200 μL) or aerosolized-OVA (200 μL) was delivered by using the Microsprayer Syringe Model 1C (PennCentury, Philadelphia, Pa.). Aerosolized-vehicle [aqueous solution containing 30% (v/v) propylene glycol and 5% ethanol], or aerosolized-1,25(OH)2D3 (500 ng/Kg of body weight) was administered on Days 14 and 16. There were 4 groups in the study. Group 1: Sensitized and challenged with PBS, no treatment. Group 2: Sensitized and challenged with OVA, no treatment. Group 3: Sensitized and challenged with OVA, vehicle treatment on Days 14 and 16. Group 4: Sensitized and challenged with OVA, 1,25(OH)2D3 treatment on Days 14 and 16. At the end of the study, 17 days after the first I.P. injection, lungs were lavaged five times with 5 mL/each of calcium- and magnesium-free PBS containing 0.05 mM EDTA (ethylenediamine tetraacetic acid). The lavage fluid was centrifuged at 1,000×g for 10 minutes. The supernatant was removed, and the cell pellet was resuspended in 1 mL cold PBS. Total cell counts in bronchoalveolar lavage fluid (BALF) was performed using a hemocytometer. Slides of BALF were prepared by cytospin-2 cytocentrifugation of an aliquot of the cell suspension, and a differential cell count to determine the number of leukocytes was performed after staining with Diff-Quick (IMED, Inc., CA).

[2] = tested on: BALBc mice; assay: Asthma model, ovalbumin-sensitized mice; type: in vivo, mouse; details: preliminary work
Description: The fourth test performed on the analogs is treatment using an asthma model. For this test, BALBc mice are injected for 7 days with 10 micrograms of ovalbumin together with alum to sensitize the animals. These are given by intraperitoneal injection and at the end of 7 days, the asthmatic reaction to an inhaled dose of ovalbumin is examined. In this test, the ovalbumin as a 0.2% solution is delivered by nebulizer to the mouse. Air flow measures are carried out as described by Isenberg-Feig et al. in Current Allergy and Asthma Reports, 3:70-78 (2003) which is hereby incorporated by reference in its entirety and for all purposes as if fully set forth herein. Furthermore, the lungs are removed and sectioned for analysis. The degree of invasion of eosinophils into the bronchial tissue is used as a non-subjective measurement of asthmatic response. After the animals are sensitized and given the expected responses to ovalbumin, the animals are subjected to an aerosol that includes either a vitamin D antagonist of the invention or 1α,25-(OH)2D3. After exposure to the vitamin D antagonist of the invention or the 1α,25-(OH)2D3, the animals will be exposed to a nebulized dose of 0.2% ovalbumin. The presence of the antagonist will be found to block the asthmatic response to the inhaled ovalbumin. […]

[3] = tested on: mouse model of asthma; details: Matheu et al., J Allergy Clin Immunol 112:585, 2003; cited from earlier work
[4] = target: T1, full-length recombinant rat vitamin D receptor (Rattus norvegicus, UniProt P13053); assay: Vitamin D receptor binding assay, competition with [3H]-1,25(OH)2D3; details: relative to 1α,25-dihydroxyvitamin D3; FIG. 1
T1 construct: Full-length recombinant rat receptor is/was expressed in E. coli BL21(DE3) Codon Plus RIL cells; histidine tag (C); made in house; host or cells: E. coli BL21(DE3) Codon Plus RIL
T1 sequence (P13053 1-423): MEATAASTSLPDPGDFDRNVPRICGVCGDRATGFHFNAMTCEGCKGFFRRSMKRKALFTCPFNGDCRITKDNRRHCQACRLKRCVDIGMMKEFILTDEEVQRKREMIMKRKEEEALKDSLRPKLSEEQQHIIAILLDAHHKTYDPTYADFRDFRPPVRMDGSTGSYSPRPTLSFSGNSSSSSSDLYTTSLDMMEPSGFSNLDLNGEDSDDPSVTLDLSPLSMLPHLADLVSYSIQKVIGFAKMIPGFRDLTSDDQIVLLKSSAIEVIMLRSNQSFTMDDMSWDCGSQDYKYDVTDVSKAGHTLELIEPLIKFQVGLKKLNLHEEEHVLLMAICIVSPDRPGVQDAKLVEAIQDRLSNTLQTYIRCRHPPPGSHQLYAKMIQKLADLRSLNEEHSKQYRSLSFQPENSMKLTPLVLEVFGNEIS
From the text: Full-length recombinant rat receptor is/was expressed in E. coli BL21(DE3) Codon Plus RIL cells and purified to homogeneity using two different column chromatography systems. The first system is/was a nickel affinity resin that utilizes the C-terminal histidine tag on this protein. The protein that is/was eluted from this resin is/was further purified using ion exchange chromatography (S-Sepharose Fast Flow). Aliquots of the purified protein are/were quick frozen in liquid nitrogen and stored at −80° C. until use. For use in binding assays, the protein is/was diluted in TEDK50 (50 mM Tris, 1.5 mM EDTA, pH 7.4, 5 mM DTT, 150 mM KCl) with 0.1% Chaps detergent. The receptor protein and ligan concentration is/was optimized such that no more than 20% of the added radiolabeled ligand is/was bound to the receptor.
Unlabeled ligands are/were dissolved in ethanol and the concentrations determined using UV spectrophotometry (1,25(OH)2D3: molar extinction coefficient=18,200 and λmax=265 nm; Analogs: molar extinction coefficient=42,000 and λmax=252 nm). […]
Radiolabeled and unlabeled ligands are/were added to 100 mcl of the diluted protein at a final ethanol concentration of ≦10%, mixed and incubated overnight on ice to reach binding equilibrium. […] Total binding is/was determined from the tubes containing only radiolabeled ligand.

[5] = tested on: Human promyelocytic leukemia (HL60) cells; assay: HL-60 cellular differentiation test (NBT reduction); type: cell-based; details: relative to 1α,25-dihydroxyvitamin D3; FIGS. 2-3
Description: The compounds of the invention are/were dissolved in ethanol and the concentrations are/were determined using UV spectrophotometry. Serial dilutions are/were prepared so that a range of drug concentrations can be tested without changing the final concentration of ethanol (≦0.2%) present in the cell cultures.
Antagonism is/was tested by adding a combination of 1,25(OH)2D3 and the putative antagonist in the same well keeping the final ethanol concentration the same.
Human promyelocytic leukemia (HL60) cells are/were grown in RPMI-1640 medium containing 10% fetal bovine serum. The cells are/were incubated at 37° C. in the presence of 5% CO2.
HL60 cells are/were plated at 1.2×10^5 cells/mL. Eighteen hours after plating, cells in duplicate are/were treated with compound of the invention in ethanol. Four days post-dose, the cells are/were harvested and a nitro blue tetrazolium reduction assay is/was performed (Collins et al., J. Exp. Med. 149, 969-974, Appendix A (1979)). The percentage of differentiated cells is/was determined by counting a total of 200 cells and recording the number that contained intracellular black-blue formazan deposits. Verification of differentiation to monocytic cells is/was determined by measuring phagocytic activity. All drug concentrations are/were tested in duplicate.

[6] = tested on: vitamin D 24-hydroxylase (CYP24) promoter luciferase reporter; assay: Reporter gene assay, CYP24 promoter-luciferase in ROS-17/2.8 osteoblast cells; type: cell-based; details: Ros17/2.8 (bone) cells; FIG. 4
From the text: A reporter gene assay is/was used in which the promoter to the vitamin D 24-hydroxylase, i.e. CYP24 is/was placed in front of a luciferase reporter and is/was permanently transfected into ROS-17/2.8 osteoblast cell cultures as previously described (see Arbour, N. C., T. K. Ross, C. Zierold, J. M. Prahl, and H. F. DeLuca. A Highly Sensitive Method for Large-Scale Measurements of 1,25-Dihydroxyvitamin D. Analyt. Biochem. 255, 148-154, (1998) which is hereby incorporated by reference in its entirety and for all purposes as if fully set forth herein). These cells are/were grown to almost confluency at which time the analog or the standard 1α,25-(OH)2D3 is/was added. After 4 hours of incubation, the cells are/were ruptured and luciferase is/was measured by the methods provided by the Promega Kit. These experiments show the level of activity of the vitamin D analogs of the invention at transcription.
The phrase “RLU” refers to relative luciferase units.

[7] = tested on: vitamin D 24-hydroxylase (CYP24) promoter luciferase reporter; assay: Competition for transcription activity, analog plus 1,25(OH)2D3 in the reporter gene assay; type: cell-based; details: with 1α,25-dihydroxyvitamin D3; FIGS. 5-6
Description: Antagonism is/was tested by adding a combination of 1,25(OH)2D3 and the putative antagonist in the same well keeping the ethanol concentration the same.
The third test that is performed is competition for transcription activity. Again, the ROS-17/2.8 osteoblast cells that contain the reporter gene system described above are employed. A dose-response curve is constructed with 1α,25-(OH)2D3 and another 1α,25-(OH)2D3 dose response curve is prepared with increasing concentrations of antagonist or analogs of the invention. Analogs that prevent 1α,25-(OH)2D3-induced transcription, are defined using this technique as either weak agonist or a complete antagonist of the VDR for 1α,25-(OH)2D3.

[8] = tested on: Sprague-Dawley rats; assay: Bone calcium mobilization (serum calcium); type: in vivo, rat; details: four ip doses, even at 2,900 pmol/day, FIG. 7
Description: (§1) Male, weanling Sprague-Dawley rats are/were placed on Diet 11 (0.47% Ca) diet +AEK for one week followed by Diet 11 (0.02% Ca) +AEK for 3 weeks. The rats are/were then switched to a diet containing 0.47% Ca for one week followed by two weeks on a diet containing 0.02% Ca. Dose administration began during the last week on 0.02% calcium diet. Four consecutive ip doses are/were given approximately 24 hours apart. Twenty-four hours after the last dose, blood is/was collected from the severed neck, and the concentration of serum calcium is/was determined as a measure of bone calcium mobilization. The first 10 cm of the intestine is/was also collected for intestinal calcium transport analysis using the everted gut sac method.
(§2) Antagonism is/was tested by administering a combination of 1,25(OH)2D3 and the putative antagonist to the animal simultaneously.

[9] = tested on: Sprague-Dawley rats; assay: Intestinal calcium transport (everted gut sac); type: in vivo, rat; details: four ip doses, FIG. 8
Description: as §1, §2

Row | Compound | total cell counts in BALF after OVA challenge ([1]; FIG. 9) | number of eosinophils in BALF after OVA challenge ([1]; FIG. 11) | number of macrophages in BALF after OVA challenge ([1]; versus control (PBS), FIG. 10) | severity of the asthmatic response to ovalbumin [2] | asthma symptoms in a mouse model of asthma [3] | binding to the vitamin D receptor (competition with [3H]-1,25-(OH)2-D3) [4] | induction of differentiation of HL-60 cells [5] | in vitro transcription activity (reporter gene) [6] | antagonistic activity on transcription when administered along with the native hormone [7] | bone calcium mobilization (calcemic activity) [8] | intestinal calcium transport [9]
1 | C=C1/C(=C\C=C2/CCC[C@]3(C)[C@@H]([C@H](C)CCCC(C)(C)O)CC[C@@H]23)C[C@@H](O)C[C@@H]1O [1,25(OH)2D3, 1α,25-dihydroxycholecalciferol] | reduced; also recorded: inhibits the OVA (ovalbumin)-mediated increase in total number of cells in BALF | increased OVA-induced eosinophils recruitment; also recorded: increases the OVA-induced eosinophils count in BALF compared to the control | decreased the number of macrophages; also recorded: decreases the number of macrophages compared to the control | increases the severity of the asthmatic response to ovalbumin | both triggers and exacerbates asthma symptoms |  |  |  |  |  | 
2 | C=C1[C@H](O)CC(=C/C=C2\CCC[C@]3(C)[C@@H]([C@H](C)/C=C/[C@@H](OCCCC)C4(C(=O)OCCCC)CC4)CC[C@@H]23)C[C@H]1O [CN-67, (22E)-(24R)-24-butoxy-25-carbobutoxy-2-methylene-26,27-cyclo-22-dehydro-1α-hydroxy-19-norvitamin D3] |  |  |  |  |  | significantly less active than 1α,25-dihydroxyvitamin D3 | less active than 1α,25-dihydroxyvitamin D3 | does not appear to be active in causing transcription | appears to exhibit antagonistic activity |  | 
3 | C=C1[C@H](O)CC(=C/C=C2\CCC[C@]3(C)[C@@H]([C@H](C)/C=C/[C@@H](O)C4(C(=O)OCCCC)CC4)CC[C@@H]23)C[C@H]1O [OU-72, (22E)-(24R)-25-carbobutoxy-2-methylene-26,27-cyclo-22-dehydro-1α,24-dihydroxy-19-norvitamin D3] |  |  |  |  |  | approximately equal to the native hormone | less active than 1α,25-dihydroxyvitamin D3 | active in stimulating transcription | shows antagonistic activity | no calcemic activity | retain the ability to elevate intestinal calcium transport
